Data reported in US20240368278A1, “GENERATION AND CHARACTERIZATION OF NOVEL TIM-4 BINDING AGENTS” (Heat Biologics, Inc., priority 2021, published 2024).
Entries after “also recorded” stand apart in the source; their conditions may differ.

Experiments:
THP-1 cells [1] = experiment: Phagocytosis assay in THP-1 cells with phosphatidylserine lipid microparticles; format: cell-based; settings: for inhibition of phagocytosis (RFU): phosphatidylserine lipid microparticles, peptides at 100 μg/mL, 3 h under serum starvation, vs untreated control
From the text: FIG. 2A, FIG. 2B, and FIG. 2C show an image of the THP-1 experimental workflow, an image of THP-1 cells undergoing phagocytosis, and a graph showing data from the phagocytosis experiment. FIG. 2A is an image of the experimental workflow. FIG. 2B is a graph showing data from the peptides derived from the CDR3 regions of antibodies tested in the phagocytosis assay. In FIG. 2B, along the x-axis, “156-1G” refers to SEQ ID NO: 7, “156-IH” refers to SEQ ID NO: 11, “156-2B” refers to SEQ ID NO: 3, and “156-2F” refers to SEQ ID NO: 15. In this assay, cells were treated with the indicated treatments, and cytochalasin D (20 μM) was used as a control to show phagocytosis failure. CDR3 regions from antibodies that bound to Tim-4 were synthesized as peptides, and subsequently tested. The data shown in FIG. 2B represents peptides tested at 100 μg/mL. Statistics were performed using a one-way ANOVA followed by a multiple comparison test comparing each treatment to “untreated” control (p>0.05=*, ns=not significant). […] Phosphatidylserine (“PS”) lipid microparticles are shown and superimposed onto brightfield images of THP-1 cells. […] Scale bar represents 150 μm.
Phagocytosis assays using the developed peptides derived from the CDR3 regions of antibodies (e.g., SEQ ID NO: 35, SEQ ID NO: 36, SEQ ID NO: 37, and SEQ ID NO: 38) and THP-1 cells were completed by following the experimental outline shown in FIG. 2A. In these experiments, 1×10^5 cells were seeded on a 96 well plate, and the synthesized peptides (e.g., SEQ ID NO: 35, SEQ ID NO: 36, SEQ ID NO: 37, and SEQ ID NO: 38) were then added onto the plate for three hours under serum starvation. Phosphatidylserine lipid microparticles were then added in media containing 10% FBS. Cells were then washed 3 to 5 times with PBS, and the level of fluorescence (e.g., relative fluorescence units, “RFU”) was then analyzed with a plate reader. In these experiments, cytochalasin D (20 μM) was used as a control to show phagocytosis failure. […]

Tim4-Hek293-FT cells = experiment: Phagocytosis assay in Tim4-Hek293-FT cell line; format: cell-based; settings: for inhibition of phagocytosis (RFU): Tim4-Hek293-FT cells, 96 well plate, vs untreated control
Description: Stable Tim-4 expression was confirmed by RT-PCR using primers against Tim-4 mRNA and Gapdh mRNA (control). […] Scale bar represents 300 μm.
In FIG. 5A, the Tim4-Hek293-FT cells were plated in a 96 well plate, followed by the phagocytosis assay. Statistical analysis was performed using a t-test (p>0.05=*). Relative fluorescence units (“RFU”) were normalized to fluorescent intensity at hour zero. In FIG. 5B, Tim4-Hek293-FT cells were fixed and immunolabeled against Tim-4 and counterstained with DAPI. […] Arrows indicate phosphatidylserine bead. Scale bar represents 75 μm.
In FIG. 7A, cells were plated on a 96 well plate and treatments were performed similar to FIG. 2A. Statistics were performed using a one-way ANOVA followed by a multiple comparison test comparing each treatment to the “untreated” control (p>0.05=*, p>0.01=**, p>0.001=***). […] In FIG. 7A, “116-117 1A” is SEQ ID NO: 30 ([…]), “116-117 2C” is SEQ ID NO: 23 ([…]), “116-117 2D” is SEQ ID NO: 24 ([…]), “116-117 2F” is SEQ ID NO: 25 ([…]), “116-117 3B” is SEQ ID NO: 26 ([…]), “116-117 3C” is SEQ ID NO: 27 ([…]), “116-117 3E” is SEQ ID NO: 17 ([…]), “116-117 3F” is SEQ ID NO: 28 ([…]), “116-117 4A” is SEQ ID NO: 22 ([…]), and “116-117 4G” is SEQ ID NO: 29 ([…]). […] Scale bar represents 150 μm.
To further validate the function of the synthesized peptides, a Tim4-Hek293-FT cell line was developed (FIG. 4A).
A phagocytosis assay, as previously described above and following the experimental outline of FIG. 2A, was performed in the Tim4-Hek293-FT cells. In these experiments, cytochalasin D (20 μM) was used as a control to show phagocytosis failure. […] The inhibition of phagocytosis by SEQ ID NO: 17 is also shown in the immunofluorescence images of FIG. 7B.

THP-1 cells [2] = experiment: Phagocytosis assay in THP-1 cells with carboxylate beads; format: cell-based; settings: 96 well plate, vs untreated control
Description: FIG. 3A and FIG. 3B are graphs showing dose response curves of the phagocytosis assay in THP-1 cells using both PS beads and carboxylate beads.
In FIG. 8A, cells were plated on a 96 well plate and treatments were performed with carboxylate beads. Statistics were performed using a one-way ANOVA followed by a multiple comparison test comparing each treatment to the “untreated” control (p>0.05=*, p>0.01=**, p>0.001=***, p>0.0001=****). FIG. 8B are representative images of the phagocytosis assay. […] Scale bare represents 150 μm. […] Scale bar represents 150 μm. FIG. 8D is a graph of a dose response curve.
(§1) To further validate the function of the synthesized peptide, SEQ ID NO: 17, a phagocytosis assay using SEQ ID NO: 17 in THP-1 cells (FIG. 8A, FIG. 8B, FIG. 8C, and FIG. 8D), and in RAW 264.7 cells (FIG. 9A and FIG. 9B), was performed. […] A dose response curve for SEQ ID NO: 17 in THP-1 cells was generated (FIG. 8D). […] A dose response curve for SEQ ID NO: 17 in RAW 264.7 cells was generated (FIG. 9B).

THP-1 cells [3] = experiment: Autophagy assay (autophagosome formation) in THP-1 cells; format: cell-based; settings: labeled autophagosomes, Hoechst nuclear stain
From the text: In FIG. 11B, autophagosomes are labeled and Hoechst stain is used for nuclear staining.

RAW 264.7 cells = experiment: RAW phagocytosis assay with carboxylate beads; format: cell-based, mouse; settings: across a range of doses
Description: In FIG. 9A, cells were plated on a 96 well plate and treatments were performed with carboxylate beads. Statistics were performed using a one-way ANOVA, followed by a multiple comparison test comparing each treatment to the “untreated” control (p>0.05=*, p>0.01=**, p>0.001=***, p>0.0001=****). In FIG. 9B, a dose response curve of a RAW phagocytosis assay was performed using mouse macrophages RAW cells with cytochalasin D as a control, and graphed in log scale.
as §1

Tim-4 = molecular target: T1, Tim-4 (Homo sapiens, UniProt Q96H15); experiment: Binding to Tim-4 (identification of binders)
T1 sequence (Q96H15 25-378): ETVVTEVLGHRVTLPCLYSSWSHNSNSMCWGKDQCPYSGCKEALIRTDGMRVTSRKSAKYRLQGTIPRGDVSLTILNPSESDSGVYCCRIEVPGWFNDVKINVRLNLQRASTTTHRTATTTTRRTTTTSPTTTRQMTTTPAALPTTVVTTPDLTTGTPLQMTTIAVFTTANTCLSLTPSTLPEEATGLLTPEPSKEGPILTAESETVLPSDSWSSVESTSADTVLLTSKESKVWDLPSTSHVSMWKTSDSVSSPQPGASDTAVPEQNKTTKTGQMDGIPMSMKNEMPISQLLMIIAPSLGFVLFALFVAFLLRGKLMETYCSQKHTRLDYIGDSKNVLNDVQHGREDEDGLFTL

KVAVMTMAEANRRGTYSS [SEQ ID NO: 3]
inhibition of phagocytosis (RFU) (THP-1 cells [1]): significantly inhibited phagocytosis
inhibition of phagocytosis (RFU) (Tim4-Hek293-FT cells): inhibit phagocytosis; also recorded: limit phagocytosis

QCYANHMYCNDSIAVYHFQM [SEQ ID NO: 17]
inhibition of phagocytosis with phosphatidylserine lipid microparticles compared to carboxylate beads (dose response curves) (THP-1 cells [1]): greater inhibition
phagocytosis of the phosphatidylserine bead (immunofluorescence image) (Tim4-Hek293-FT cells; Tim4-Hek293-FT cells fixed, immunolabeled against Tim-4, DAPI): reduced ability of phagocytosis
inhibition of phagocytosis (RFU) (Tim4-Hek293-FT cells): inhibited phagocytosis
inhibition of phagocytosis (RFU) (Tim4-Hek293-FT cells; listed as 116-117 3E): inhibits phagocytosis
inhibition of phagocytosis (THP-1 cells [2]): inhibited phagocytosis
inhibition of phagocytosis (THP-1 cells [2]; listed as 116-117 3E): inhibits phagocytosis
autophagosome formation (THP-1 cells [3]): reduces autophagosome formation
inhibition of phagocytosis (RAW 264.7 cells): inhibited phagocytosis
binding to Tim-4 (Tim-4): bound to Tim4

QTLAFAYNDSDWFEVYKG [156-1G]
inhibition of phagocytosis (RFU) (THP-1 cells [1]): significantly inhibited phagocytosis
